Source: US12655101B2, “Small molecules with antibacterial activity” (NEW MEXICO TECH UNIVERSITY RESEARCH PARK CORPORATION, priority 2021, dated 2026)

How the values were obtained:
Assay type in all cases: cell-based
[1] = test system: A. baumannii ATCC BAA-1797; experiment: Synergy of gentamicin and Compound 25, colony counts; details: 18 hours
Protocol: Cells were cultured using methods described above. 500 μL of the adjusted bacterial cell suspensions were placed into borosilicate glass tubes, where the cell suspensions were treated with 100 μg/mL gentamicin, 2 μM Compound 25, or a combination of 100 μg/mL gentamicin plus 2 μM Compound 25. The culture tubes were incubated for 18 hours at 37° C. Colony counts were performed by 10-fold serially diluting the samples into fresh MHB and drip-streaking 10 μL from each dilution series onto MHA. The plates were incubated at 37° C. for 18 hours before the CFU/mL were determined by visual cell counts.
500 μL aliquots of the adjusted bacterial cell suspensions were placed into borosilicate glass tubes, where the cell suspensions were treated with 50 μg/mL gentamicin, 2 μM Compound 25, or a combination of 50 μg/mL gentamicin plus 2 μM Compound 25. The culture tubes were incubated for 18 hours at 37° C.

A. baumannii ATCC 15151 [2] = experiment: Synergy of kanamycin and Compound 25, colony counts
Protocol: Bacterial cells were prepared using methods described above. 500 μL aliquots of the adjusted bacterial cell suspensions were placed into borosilicate glass tubes, where the cell suspensions were treated with 12.5 μg/mL kanamycin, 1 μM or 2 μM Compound 25, or a combination of 12.5 μg/mL kanamycin plus 1 μM or 2 μM Compound 25. The culture tubes were incubated for 18 hours at 37° C. Colony counts were performed by 10-fold serially diluting the samples into fresh MHB and drip-streaking 10 μL from each dilution series onto MHA. The plates were incubated at 37° C. for 18 hours before the CFU/mL were determined by visual cell counts.
A. baumannii ATCC 15151 was grown from a glycerol stock by placing a small volume of cells onto a MHA plate. The MHA plate was incubated overnight at 37° C. A single colony was subsequently used to inoculate MHB to obtain a bacterial broth suspension. The MHB broth suspension was grown at 37° C. on a rotary shaking incubator (100 rpm) for 12 hours. The bacterial cell concentration was adjusted to ˜5×10^5 CFU/mL in MHB or MHB+40% FBS using OD at 595 nm. 500 μL aliquots of the adjusted bacterial cell suspensions were placed into borosilicate glass tubes. Cell suspensions were treated with 6 μg/mL or 12.5 μg/mL kanamycin, 1 μM, 2 μM, or 10 μM Compound 25, or a combination of 6 μg/mL or 12.5 μg/mL […] plus 1 μM, 2 μM, or 10 μM Compound 25. The culture tubes were incubated for 18 hours at 37° C. Colony counts were determined by 10-fold serially diluting the samples into fresh MHB and drip-streaking 10 μL from each dilution series onto MHA. The plates were incubated at 37° C. for 18 hours before the CFU/mL were determined by visual cell counts.

A. baumannii ATCC 15151 [3] = experiment: DNA degradation (agarose gel), drug-sensitive strain; details: 1.5% H2O2, 10 μg/mL ciprofloxacin, 100 μM Compound 25; 3 hours
A. baumannii ATCC 15151 [4] = experiment: Filamentation with ciprofloxacin and Compound 25 on A. baumannii; details: for cell morphology and growth: 18 hours
Protocol: A. baumannii ATCC 15151: […] The culture tubes were incubated for 18 hours at 37° C. After 18 hours incubation, took 3 μL of cells from each well and plated on microscope slide to observe the following: […]

E. coli = experiment: Filamentation with ciprofloxacin and Compound 25 on E. coli; details: for cell morphology and growth: 16 hours
Protocol: E. coli: E. coli was grown from a glycerol stock by placing a small volume of cells onto a MHA plate. The MHA plate was incubated overnight at 37° C. A single colony was subsequently used to inoculate MHB to obtain a bacterial broth suspension. The MHB broth suspension was grown at 37° C. on a rotary shaking incubator (100 rpm) for 12 hours. The bacterial cell concentration was adjusted to ˜1×10^7 CFU/mL in MHB using OD at 595 nm. […] The culture tubes were incubated for 16 hours at 37° C. After 16 hours incubation, took 3 μL of cells from each well and plated on microscope slide to observe the following: […]

[5] = test system: A. baumannii ATCC BAA-1797; experiment: DNA degradation (agarose gel), drug-resistant strain; details: drug-resistant ATCC BAA-1797; 10 μg/mL ciprofloxacin, 100 μM Compound 25; 5 hours
[6] = test system: A. baumannii ATCC BAA-1797 in a culture of HeLa cells; experiment: Selective killing of A. baumannii in a culture of HeLa cells; details: 60 μM Compound 26
Protocol: In a separate experiment, the ability of […] to selectively kill A. baumannii ATCC BAA-1797 in a culture of HeLa cells in 40% FBS was studied. Cells were trypsinized, counted (cells/mL) using a hemocytometer, and plated (2×10^5 HeLa cells/100 μL) in tissue culture-treated 24-well plate in DMEM+1% penicillin/streptomycin (P/S)+10% FBS. Cells were adhered overnight at 37° C. in a humidified incubator with 5% CO2. Media was replaced the following day with DMEM+40% or 50% FBS. Selected wells were treated with 60 μM Compound 26, which included HeLa only and HeLa plus 10,000 A. baumannii ATCC BAA-1797—that had been previously grown in MHB for 12 hours in 37° C.—in the appropriate wells. Cells were incubated further for 18 hours at 37° C. 20% v/v MTT reagent (5 mg/mL stock) was added, and the samples were incubated for 10 minutes to observe viable bacteria. Plates were counted after a visual viability assessment.
Cells were trypsinized, counted (cells/mL) using a hemocytometer, and plated (2×10^5 HeLa cells/100 μL) in tissue culture-treated 24-well plate in DMEM+1% penicillin/streptomycin (P/S)+10% FBS. Cells were adhered overnight at 37° C. in a humidified incubator with 5% CO2. Media was replaced the following day with DMEM+40% or 50% FBS. […] Plates were counted after visual viability assessment.

[7] = […] Compound 25+50 ng/mL ciprofloxacin
[8] = 20 μM Compound 25+25 ng/mL ciprofloxacin

Brc1ccc(N/N=C/c2c[nH]c3cccc(OCc4ccccc4)c23)cc1.Cl [Compound 25, (E)-2-((4-(benzyloxy)-1H-indol-3-yl)methylene)-1-(4-bromophenyl)hydrazin-1-ium chloride]
synergy, full cell death ([1]; 50 μg/mL gentamicin+2 μM Compound 25): 4 orders of magnitude
synergy, full cell death ([1]; 100 μg/mL gentamicin+2 μM Compound 25): 8 orders of magnitude
synergy, logs of kill (A. baumannii ATCC 15151 [2]; 12.5 μg/mL kanamycin+1 μM Compound 25, 18 hours): 2.5 logs of kill
synergy, full cell death (A. baumannii ATCC 15151 [2]; 12.5 μg/mL kanamycin+2 μM Compound 25, 18 hours): 9 orders of magnitude
synergy, logs of kill (A. baumannii ATCC 15151 [2]; 40% FBS, 12.5 μg/mL kanamycin+10 μM Compound 25): 9 logs of kill
synergy, logs of kill (A. baumannii ATCC 15151 [2]; without serum, 6 μg/mL kanamycin+2 μM Compound 25): 8 logs of kill
DNA degradation (A. baumannii ATCC 15151 [3]): did not degrade DNA
inhibition of ciprofloxacin-induced filamentation (A. baumannii ATCC 15151 [4]; [7]): only slightly inhibited
cell morphology and growth (A. baumannii ATCC 15151 [4]; [7]): elongated in morphology and growth inhibition was observed
cell morphology and growth (A. baumannii ATCC 15151 [4]; single agent: 50 ng/mL ciprofloxacin or […] Compound 25): morphologically normal and full growth was observed
inhibition of ciprofloxacin-induced filamentation (E. coli; [8]): only slightly inhibited
cell morphology and growth (E. coli; [8]): elongated in morphology and growth inhibition was observed
cell morphology and growth (E. coli; single agent: 25 ng/mL ciprofloxacin or 20 μM Compound 25): morphologically normal and growth inhibition was observed
ds DNA damage [5]: Neither Ciprofloxacin Nor Compound 25 Caused ds DNA Damage

Cl.Clc1ccc(N/N=C/c2c[nH]c3cccc(OCc4ccccc4)c23)cc1 [Compound 26, (E)-2-((4-(benzyloxy)-1H-indol-3-yl)methylene)-1-(4-chlorophenyl)hydrazin-1-ium]
kill of A. baumannii ATCC BAA-1797 in HeLa co-culture ([6]; 40% FBS and 50% FBS): 4 logs
selective eradication of A. baumannii from HeLa cells ([6]; 18 hours, 40% or 50% FBS): selectively eradicated A. baumannii ATCC BAA-1797 from HeLa cells, leaving HeLa cells unharmed
